Patent publication US9133179B2, “2-methoxy-pyridin-4-yl-derivatives” (Actelion Pharmaceuticals Ltd., priority 2011, dated 2015)

How the values were obtained:
[1] = target: T1, human S1P1 (EDG1) receptor (Homo sapiens, UniProt P21453); assay: S1P1 β-arrestin recruitment (Tango) assay to determine EC50 values; type: cell-based; details: Tango-EDG1 bla U2OS cells, 16 h incubation
T1 construct: host or cells: U2OS (Tango EDG1-bla U2OS)
Text: S1P1 β-Arrestin Recruitment (Tango) Assay to Determine EC50 Values
Upon ligand activation, G protein-coupled receptors (GPCR) trigger two pathways that independently transduce signals to the cell: one through heterotrimeric GTP-binding proteins (G proteins) and one through β-arrestins. Agonist-induced GPCRs recruit β-arrestin proteins, which then bind to the carboxy-terminal domain of ligand-activated GPCRs. The amount of β-arrestin recruitment can be used to assess the potency and efficacy of GPCR activating ligands.
To measure the potency and efficacy of compounds as S1P1 (EDG1) receptor agonists, Tango™-EDG1 bla U2OS cells (Invitrogen, USA, Catalog #K1520) are used. The Tango™ GPCR technology is based on GeneBLAzer β-lactamase reporter cell assays, which uses a mammalian-optimized β-lactamase reporter gene (bla) combined with a FRET-enabled substrate. The host cells, U2OS, stably express a human S1P1 (EDG1) receptor/transcription factor (TF) fusion protein. The cells also express a recombinant protease tagged β-arrestin protein, which is recruited to the S1P1 receptor upon ligand stimulation and specifically cleaves the S1P1-TF fusion protein. The released TF activates the β-lactamase (bla) reporter gene. To measure the reporter gene activity, cells are loaded with a fluorescent substrate containing two chemically coupled fluorophores, coumarin and fluorescein. […] In the presence of bla, the chemical bond is cleaved and FRET is inhibited. […] The amount of β-arrestin recruitment is proportional to the increase in blue fluorescence.
Tango™-EDG1 bla U2OS cells are cultivated in McCoy's 5A containing 10% dialyzed FBS, 0.1 mM NEAA, 25 mM HEPES, 1 mM sodium pyruvate, 1% Penicillin/Streptomycin, 200 μg/ml zeocin, 50 μg/ml hygromycin and 100 μg/ml geneticin (Invitrogen, USA). Cells are detached with trypsin, resuspended in medium and then counted.
Compounds (10 mM stock in DMSO) are diluted first in DMSO. The pre-diluted compounds solutions are then transferred into Assay Medium/0.1% fatty acid free BSA to reach a fourfold concentrated compound stock, which is applied to the cells to reach the final compound concentrations that range from 10 μM to 0.0005 nM (0.5% final DMSO). Cells are then incubated for 16 h at 37° C. and 5% CO2.

circulating lymphocytes = assay: Assessment of in vivo efficacy: circulating lymphocytes after oral administration to Wistar rats; design: species or system rat; details: Rattus norvegicus, Lymphocyte; 6 h after oral administration of 10 mg/kg, normotensive male Wistar rats, compared to vehicle group; read-out: Lymphocyte counts
Method: Assessment of In Vivo Efficacy
The efficacy of the compounds of Formula (I) is assessed by measuring the circulating lymphocytes after oral administration of 3 to 30 mg/kg of a compound of Formula (I) to normotensive male Wistar rats. The animals are housed in climate-controlled conditions with a 12 h-light/dark cycle, and have free access to normal rat chow and drinking water. […] Full blood is subjected to hematology using Advia Hematology system (Bayer Diagnostics, Zurich, Switzerland).
All data are presented as mean±SEM. Statistical analyses are performed by analysis of variance (ANOVA) using Statistica (StatSoft) and the Student-Newman-Keuls procedure for multiple comparisons. The null hypothesis is rejected when p<0.05.

T1 sequence (P21453 whole entry): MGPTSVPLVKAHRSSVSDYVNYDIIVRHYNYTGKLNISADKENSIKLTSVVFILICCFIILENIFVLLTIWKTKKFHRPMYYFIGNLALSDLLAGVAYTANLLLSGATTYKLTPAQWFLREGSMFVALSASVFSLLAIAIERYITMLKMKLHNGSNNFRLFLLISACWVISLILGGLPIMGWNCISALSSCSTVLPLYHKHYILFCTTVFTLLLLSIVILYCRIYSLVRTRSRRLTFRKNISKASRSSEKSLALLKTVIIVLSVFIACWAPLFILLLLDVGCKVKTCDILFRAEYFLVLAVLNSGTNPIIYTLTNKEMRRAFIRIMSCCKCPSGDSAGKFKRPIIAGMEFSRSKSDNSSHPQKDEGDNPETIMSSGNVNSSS

SMILES	EC50 [1]	change in vivo at 10 mg/kg (circulating lymphocytes)
COc1cc(-c2nc(-c3cc(Cl)c(OCCNCCC(=O)O)c(OC)c3)no2)cc(C2CCCC2)n1 [Example 37, 3-((2-(2-Chloro-4-(5-(2-cyclopentyl-6-methoxypyridin-4-yl)-1,2,4-oxadiazol-3-yl)-6-methoxyphenoxy)ethyl)amino)propanoic acid]	0.2 nM	-71%
CCc1cc(-c2noc(-c3cc(OC)nc(C4CCCC4)c3)n2)cc(C)c1OCCCN(C)CCC(=O)O [Example 21, 3-((3-(4-(5-(2-Cyclopentyl-6-methoxypyridin-4-yl)-1,2,4-oxadiazol-3-yl)-2-ethyl-6-methylphenoxy)propyl)(methyl)amino)propanoic acid]	0.659 nM	-74%
CCc1cc(-c2noc(-c3cc(OC)nc(C4CCCC4)c3)n2)cc(C)c1OCCN(C)CCC(=O)O [Example 17, 3-((2-(4-(5-(2-Cyclopentyl-6-methoxypyridin-4-yl)-1,2,4-oxadiazol-3-yl)-2-ethyl-6-methylphenoxy)ethyl)(methyl)amino)propanoic acid]	0.2 nM	–
CCc1cc(-c2noc(-c3cc(OC)nc(C4CCCC4)c3)n2)cc(C)c1OC[C@@H](O)CNC(=O)CC(=O)O [Example 14]	0.03 nM	–
CCc1cc(-c2noc(-c3cc(OC)nc(C4CCCC4)c3)n2)cc(C)c1OCCCN1CC(C(=O)O)C1 [Example 22, 1-(3-(4-(5-(2-Cyclopentyl-6-methoxypyridin-4-yl)-1,2,4-oxadiazol-3-yl)-2-ethyl-6-methylphenoxy)propyl)azetidine-3-carboxylic acid]	2.95 nM	–
CCc1cc(-c2nnc(-c3cc(OC)nc(C4CCCC4)c3)o2)cc(C)c1OC[C@@H](O)CNCCO [Example 64, (S)-1-(4-(5-(2-Cyclopentyl-6-methoxypyridin-4-yl)-1,3,4-oxadiazol-2-yl)-2-ethyl-6-methylphenoxy)-3-((2-hydroxyethyl)amino)propan-2-ol]	3 nM	–
CCc1cc(-c2noc(-c3cc(OC)nc(C4CCCC4)c3)n2)cc(C)c1OCCCNCCC(=O)O [Example 19, 3-((3-(4-(5-(2-Cyclopentyl-6-methoxypyridin-4-yl)-1,2,4-oxadiazol-3-yl)-2-ethyl-6-methylphenoxy)propyl)amino)propanoic acid]	0.4 nM	–
CCc1cc(-c2noc(-c3cc(OC)nc(C4CCCC4)c3)n2)cc(C)c1OCCCC(=O)NCCO [Example 46, 4-(4-(5-(2-Cyclopentyl-6-methoxypyridin-4-yl)-1,2,4-oxadiazol-3-yl)-2-ethyl-6-methylphenoxy)-N-(2-hydroxyethyl)butanamide]	1.8 nM	–
CCc1cc(-c2noc(-c3cc(OC)nc(C4CCCC4)c3)n2)cc(C)c1OCCNC(CO)CO [Example 25, 2-((2-(4-(5-(2-Cyclopentyl-6-methoxypyridin-4-yl)-1,2,4-oxadiazol-3-yl)-2-ethyl-6-methylphenoxy)ethyl)amino)propane-1,3-diol]	4.23 nM	–

Further lines, with some results ahead:

EC50 [1]	SMILES	change in vivo at 10 mg/kg (circulating lymphocytes)
10.3 nM	CCc1cc(-c2noc(-c3cc(OC)nc(C4CCCC4)c3)n2)cc(C)c1OCCNCC(O)CO (racemic) [Example 27, rac-3-((2-(4-(5-(2-Cyclopentyl-6-methoxypyridin-4-yl)-1,2,4-oxadiazol-3-yl)-2-ethyl-6-methylphenoxy)ethyl)amino)propane-1,2-diol]	-42%
0.1 nM	CCc1cc(-c2nc(-c3cc(OC)nc(C4CCCC4)c3)no2)cc(C)c1OCCNCC(=O)O [Example 55, 2-((2-(4-(3-(2-Cyclopentyl-6-methoxypyridin-4-yl)-1,2,4-oxadiazol-5-yl)-2-ethyl-6-methylphenoxy)ethyl)amino)acetic acid]	-72%
0.2 nM	CCc1cc(-c2nc(-c3cc(OC)nc(C4CCCC4)c3)no2)cc(C)c1OCCN1CC(C(=O)O)C1 [Example 58, 1-(2-(4-(3-(2-Cyclopentyl-6-methoxypyridin-4-yl)-1,2,4-oxadiazol-5-yl)-2-ethyl-6-methylphenoxy)ethyl)azetidine-3-carboxylic acid]	–
0.3 nM	CCc1cc(-c2noc(-c3cc(OC)nc(C4CCCC4)c3)n2)cc(C)c1OC[C@@H](O)CN1CC(C(=O)O)C1 [Example 12, (S)-1-(3-(4-(5-(2-Cyclopentyl-6-methoxypyridin-4-yl)-1,2,4-oxadiazol-3-yl)-2-ethyl-6-methylphenoxy)-2-hydroxypropyl)azetidine-3-carboxylic acid]	-61%
0.2 nM	CCc1cc(-c2noc(-c3cc(OC)nc(C4CCCC4)c3)n2)cc(C)c1OC[C@@H](O)CN(C)CC(=O)O [Example 11, (S)-2-((3-(4-(5-(2-Cyclopentyl-6-methoxypyridin-4-yl)-1,2,4-oxadiazol-3-yl)-2-ethyl-6-methylphenoxy)-2-hydroxypropyl)(methyl)amino)acetic acid]	-60%
7.98 nM	CCc1cc(-c2noc(-c3cc(OC)nc(C4CCCC4)c3)n2)cc(C)c1OCCCN(C)C(=O)CO [Example 30, N-(3-(4-(5-(2-Cyclopentyl-6-methoxypyridin-4-yl)-1,2,4-oxadiazol-3-yl)-2-ethyl-6-methylphenoxy)propyl)-2-hydroxy-N-methylacetamide]	-75%
15.1 nM	CCc1cc(-c2noc(-c3cc(OC)nc(C4CCCC4)c3)n2)cc(C)c1OCCCNC(CO)CO [Example 26, 2-((3-(4-(5-(2-Cyclopentyl-6-methoxypyridin-4-yl)-1,2,4-oxadiazol-3-yl)-2-ethyl-6-methylphenoxy)propyl)amino)propane-1,3-diol]	–
0.1 nM	CCc1cc(-c2nc(-c3cc(OC)nc(C4CCCC4)c3)no2)cc(C)c1OCCN(C)CC(=O)O [Example 56, 2-((2-(4-(3-(2-Cyclopentyl-6-methoxypyridin-4-yl)-1,2,4-oxadiazol-5-yl)-2-ethyl-6-methylphenoxy)ethyl)(methyl)amino)acetic acid]	–
25.6 nM	CCc1cc(-c2noc(-c3cc(OC)nc(C4CCCC4)c3)n2)cc(C)c1OCCCNCC(O)CO (racemic) [Example 28, rac-3-((3-(4-(5-(2-Cyclopentyl-6-methoxypyridin-4-yl)-1,2,4-oxadiazol-3-yl)-2-ethyl-6-methylphenoxy)propyl)amino)propane-1,2-diol]	–
24.7 nM	CCc1cc(-c2noc(-c3cc(OC)nc(C4CCCC4)c3)n2)cc(C)c1OCCNCCO [Example 23, 2-((2-(4-(5-(2-Cyclopentyl-6-methoxypyridin-4-yl)-1,2,4-oxadiazol-3-yl)-2-ethyl-6-methylphenoxy)ethyl)amino)ethanol]	–
0.893 nM	COc1cc(-c2nc(-c3cc(Cl)c(OCCCNC(=O)CO)c(OC)c3)no2)cc(C2CCCC2)n1 [Example 38, N-(3-(2-Chloro-4-(5-(2-cyclopentyl-6-methoxypyridin-4-yl)-1,2,4-oxadiazol-3-yl)-6-methoxyphenoxy)propyl)-2-hydroxyacetamide]	–
69 nM	CCc1cc(-c2noc(-c3cc(OC)nc(C4CCCC4)c3)n2)cc(C)c1OCCCNCCO [Example 24, 2-((3-(4-(5-(2-Cyclopentyl-6-methoxypyridin-4-yl)-1,2,4-oxadiazol-3-yl)-2-ethyl-6-methylphenoxy)propyl)amino)ethanol]	–
0.05 nM	CCc1cc(-c2nnc(-c3cc(OC)nc(C4CCCC4)c3)o2)cc(C)c1OC[C@@H](O)CNC(=O)CCC(=O)O [Example 66]	–
0.7 nM	CCc1cc(-c2nnc(-c3cc(OC)nc(C4CCCC4)c3)o2)cc(C)c1OC[C@@H](O)CNC(CO)CO [Example 65]	–
